Legend:
Type in all cases: cell-based, human
NOS in HUVEC = test: Mechanism study: NOS Activity Assay Kit with NOS and Sirt1 inhibitors; settings: Saikosaponin C 20 μM, 33 mM high glucose 36 hours
Method: (§1) Similar to Experimental Example 1, a high-fat diet evaluation system at the cellular level was established. Specifically, […], which are vascular endothelial cells, were pretreated with Saikosaponin C at a concentration of 20 μM for 2 hours, and then treated with high glucose at a concentration of 33 mM for 72 hours (for SA-β-gal staining) or 36 hours (for the analysis of enzyme activity of NOS and Sirt1). Then, SA-β-gal staining, NOS enzyme activity, and Sirt1 enzyme activity were analyzed. To analyze whether or not NOS and Sirt1 protein are involved in the anti-vascular aging effect of Saikosaponin C and the relationship between NOS and Sirt1 protein, L-NG-nitro arginine methyl ester (L-NAME) (5 mM), an inhibitor of NOS, and EX-527 (10 μM), an inhibitor of Sirt1 protein, were used. […] The senescence of vascular endothelial cells was assessed through intracellular SA-β-gal staining (FIG. 8A). The activities of NOS (FIG. 8B) and Sirt1 protein (FIG. 8C) were measured using the NOS Activity Assay Kit and the Sirt1 Activity Assay Kit, respectively.

HUVEC = test: Mechanism study: SA-β-gal staining with NOS and Sirt1 inhibitors; settings: Saikosaponin C 20 μM, 33 mM high glucose 72 hours
Method: as §1

Sirt1 in HUVEC = test: Mechanism study: Sirt1 Activity Assay Kit with NOS inhibitor; settings: L-NAME 5 mM, Saikosaponin C 20 μM, 33 mM high glucose 36 hours
Method: as §1

| SMILES | Saikosaponin C-mediated recovery of the reduction in NOS activity caused by high glucose (NOS in HUVEC; EX-527 10 μM) | anti-vascular aging effect of Saikosaponin C (SA-β-gal) after inhibitor pretreatment (HUVEC; EX-527 10 μM) | Saikosaponin C-mediated recovery of the reduction in NOS activity caused by high glucose (NOS in HUVEC; L-NAME 5 mM) | anti-vascular aging effect of Saikosaponin C (SA-β-gal) after inhibitor pretreatment (HUVEC; L-NAME 5 mM) | Saikosaponin C-mediated recovery of the reduction in Sirt1 activity caused by high glucose (Sirt1 in HUVEC) |
| --- | --- | --- | --- | --- | --- |
| NC(=O)C1CCCc2c1[nH]c1ccc(Cl)cc21 (centres unmarked) [EX-527] | abolished | significantly abolished |  |  |  |
| COC(=O)[C@@H](N)CCCNC(=N)N[N+](=O)[O-] [L-NAME, L-NG-nitro arginine methyl ester] |  |  | abolished | significantly abolished | did not abolish |

Source: patent US20250177425A1, “SAIKOSAPONIN C AS COMPOSITION FOR TREATING OR PREVENTING AGE-RELATED VASCULAR DISEASES INCLUDING ARTERIOSCLEROSIS” (AGINGTARGET, INC., priority 2022, published 2025)
